Laboratory results from patent US12201610B2, “Compositions comprising aticaprant” (Janssen Pharmaceuticals, Inc., priority 2022, dated 2025).
Read-outs that look alike come from different tables or passages of the source.

Columns and labels:
Type in all cases: in vivo, human
subjects with MDD [1] = assay: SMDDS total score (Example 6); conditions: 10 mg; Treatment Week 6; 59 subjects analyzed
Description: SMDDS is a subjective rating of the patient. The SMDDS is a 16-item PRO measure. Each item is rated by the subject according to a 5-point Likert scale. Subjects respond to each question using a rating scale between 0 (“Not at all” or “Never”) to 4 (“Extremely” or “Always”). The total score ranges […]. The SMDDS uses a 7-day recall period and verbal rating scales. Higher score indicates more severe depressive symptomatology.
iv. To investigate the effect of aticaprant on symptoms of depression using the Clinical Global Impression-Severity (CGI-S), the patient reported Symptoms of Major Depressive Disorder Scale (SMDDS) and the self-assessment of treatment experience (SATE).
(§1) • (i) Depression: Montgomery-Åsberg Depression Rating Scale (MADRS), Clinical Global Impression-Severity (CGI-S), Symptoms of Major Depressive Disorder Scale (SMDDS), and Self-assessment of treatment experience (SATE) • (ii) Anhedonia: Snaith-Hamilton Pleasure Scale (SHAPS) • (iii) Anxiety: Structured Interview Guide for the Hamilton Anxiety scale (SIGH-A) and HAM-A6 • (iv) Effects on Cognition: The Cognitive and Physical Functioning Questionnaire (CPFQ) • (v) Safety assessments

[2] = Phase 1 PK Part 1: relative bioavailability, dose proportionality, food effect of unmilled API tablet; conditions: for Tmax: median
Protocol: This is a Phase 1, open-label, single dose, multicenter, 4-part study in healthy adult participants.
Potential participants will be screened from Day −28 to Day −2 to determine participants' eligibility for study participation. For Part 1, qualified participants will be admitted on Day −1 of each treatment period and will remain in-house for the total duration of the treatment (Day −1 until Day 5, with single-dose treatment on Day 1 and 96 hours of PK), whereas for Part 2, PK sampling will be done up to 120 hours (Day 6). Each dosed participant will have a safety follow-up on Day 10 to Day 14 after last dose of the study intervention.
The Part 1 of the study involves determination of relative bioavailability for tablet (Formulation Concept 1, i.e., unmilled aticaprant formulation, see Table 10) and capsule formulations (see Example 6, study design, for description of capsule formulation) and dose proportionality and food effect for tablet formulation (Formulation Concept 1) in healthy adult participants (FIG. 25). Part 1 will consist of Subpart 1A and Subpart 1B consisting of a total of 4 periods. […] Participants will be assigned to 1 of 6 treatment sequences (Table 51) and will be administered the 3 treatments in a 3-way crossover. The same 24 participants who complete Subpart 1A will be enrolled in Subpart 1B. Subpart 1B consists of a fourth period to evaluate the food effect of a single dose of 10 mg aticaprant administered as 1×10 mg oral tablet (Formulation Concept 1) under fed conditions (Treatment D; Table 50 and Table 52). A preliminary PK analysis will be conducted at the end of the food effect part (Subpart 1B) for all the periods from Part 1 and will include the food effect data.
Secondary Objectives: • To assess the safety and tolerability of oral doses of aticaprant in healthy adult participants. Part 2
For each individual participant, there will be a washout period of at least 7 days for Part 1 and at least 8 days for Part 2 between subsequent intakes of the study intervention. Day 1 of a treatment period (day of study intervention intake) is the first day of the washout period (also in between the study parts, if applicable).
Participants will be fasting in Part 1A and Part 2A. Participants will have been fed in Parts 1B and 2B. For a fasted condition, participants will fast (nothing to cat or drink except noncarbonated water) overnight for at least 10 hours before and until 4 hours after study intervention administration during each fasted treatment period. Approximately, 4 hours post-dose and after the 4-hour PK sampling, a standard lunch will be served at the study-site. Intake of water is allowed until 2 hours before the intake of the study intervention. Thereafter, water intake is only allowed for study intervention intake and for breakfast, if applicable. Drinking of water is allowed ad libitum from approximately 2 hours after dosing. For a fed condition, participants will consume, after an overnight fast (at least 10 hours), a standardized high-fat breakfast within a 20-minute period. […] Study intervention will be administered approximately 30 minutes after the start of the breakfast.
In Parts 1 and 2, plasma concentrations will be determined for aticaprant. Blood samples for determination of plasma concentrations of aticaprant will be collected predose and at the postdose time points starting on Day 1 as indicated in the Tables 57-58.
The following plasma PK parameters of aticaprant will be determined. A noncompartmental model with extravascular input will be used for the pharmacokinetic analysis.
Based on the individual concentration-time data, using the actual sampling times, the following PK parameters will be derived for aticaprant: […]

subjects with MDD [3] = assay: SIGH-A score (Example 6); conditions: 10 mg; Treatment Week 6; 59 subjects analyzed
Description: v. To investigate the effect of aticaprant on symptoms of anxiety using the HAM-A and on core symptoms of anxiety using the HAM-A6 subscale.
as §1

[4] = Dose proportionality: C (Test, 5 mg tablet normalized to 10 mg) vs B (Reference, 10 mg tablet), fasting
[5] = Food effect: Treatment D (high-fat breakfast, Test)/Treatment B (fasting, Reference), 10 mg Formulation Concept 1
[6] = Relative BA: Treatment B (10 mg tablet, Test)/Treatment A (2 × 5 mg capsule, Reference), fasting
[7] = Treatment A: 2 × 5 mg oral capsule, fasting, mean
[8] = Treatment B: 1 × 10 mg Formulation Concept 1 (unmilled API tablet), fasting, mean
[9] = Treatment C (1 × 5 mg Formulation Concept 1, fasting), 5 mg dose normalized to 10 mg, mean (SD)
[10] = Treatment C: 1 × 5 mg Formulation Concept 1 (unmilled API tablet), fasting, mean
[11] = Treatment D: 1 × 10 mg Formulation Concept 1 (unmilled API tablet), after high-fat breakfast, mean
[12] = human, plasma, oral, 5 mg, Treatment C: 1 × 5 mg Formulation Concept 1 (unmilled API tablet), fasting, mean
[13] = human, plasma, oral, 10 mg, Treatment B: 1 × 10 mg Formulation Concept 1 (unmilled API tablet), fasting, mean
[14] = human, plasma, oral, 10 mg, Treatment D: 1 × 10 mg Formulation Concept 1 (unmilled API tablet), after high-fat breakfast, mean
[15] = human, plasma, po, 10 mg, Treatment A: 2 × 5 mg oral capsule, fasting, mean

For `Cc1cc(C)cc(C2CCCN2Cc2ccc(Oc3ccc(C(N)=O)cc3F)cc2)c1` (stereo not drawn) [aticaprant, 3-fluoro-4-4-2-(3,5-dimethylphenyl)pyrrolidin-1-yl-methylphenoxybenzamide], the “Change from Treatment Baseline in SMDDS Total Score, Arithmetic Mean (SD)” value (subjects with MDD [1]) was −8.03 ± 9.957 Scores on a scale, the Geometric Mean Cmax ([2]; Dose proportionality, completers, Treatment B (Reference): 1 × 10 mg Formulation Concept 1, fasting) was 32.8 ng/mL and the “Ratio of Geometric Means, AUClast” value [2, 4] was 103.20%. The “Ratio of Geometric Means, AUC∞” value [2, 4] was 103.93%, the “Ratio of Geometric Means, Cmax” value [2, 4] was 102.12% and the Geometric Mean Cmax ([2]; Food effect, completers, Treatment B (Reference): 1 × 10 mg Formulation Concept 1, fasting) was 32.6 ng/mL. For the same compound, the “Ratio of Geometric Means, AUClast” value [2, 5] was 144.01%, the “Ratio of Geometric Means, AUC∞” value [2, 5] was 143.84% and the “Ratio of Geometric Means, Cmax” value [2, 5] was 112.49%. For the same compound, the Geometric Mean Cmax ([2]; Relative BA, completers, Treatment B (Test): 1 × 10 mg Formulation Concept 1, fasting) was 32.8 ng/mL, the “Ratio of Geometric Means, AUClast” value [2, 6] was 93.31% and the “Ratio of Geometric Means, AUC∞” value [2, 6] was 94.14%. The “Ratio of Geometric Means, Cmax” value [2, 6] was 108.64%, the CL/F [2, 7] was 34.5 L/h and the Λz [2, 7] was 0.030 h⁻¹. For the same compound, the CL/F [2, 8] was 36.2 L/h, the Cmax [2, 8] was 34.1 ng/mL and the Λz [2, 8] was 0.029 h⁻¹. The “AUClast, C Dose Normalized” value [2, 9] was 286 (79.7) h * ng/mL, the “AUC∞, C Dose Normalized” value [2, 9] was 309 (86.4) h * ng/mL and the “Cmax, C Dose Normalized” value [2, 9] was 33.9 (8.97) ng/mL. For the same compound, the CL/F [2, 10] was 35.8 L/h, the Λz [2, 10] was 0.035 h⁻¹ and the CL/F [2, 11] was 25.0 L/h. The Λz [2, 11] was 0.031 h⁻¹, the AUC(0-t) ([2]; human, plasma, oral, 5 mg, Dose proportionality, completers, Treatment C (Test): 1 × 5 mg Formulation Concept 1, fasting, 5 mg dose normalized to 10 mg, read-out: Geometric Mean AUClast) was 280 ng·h/mL and the AUC(0-inf) ([2]; human, plasma, oral, 5 mg, Dose proportionality, completers, Treatment C (Test): 1 × 5 mg Formulation Concept 1, fasting, 5 mg dose normalized to 10 mg, read-out: Geometric Mean AUC∞) was 299 ng·h/mL. The Vd/F [2, 12] was 1150 L, the half-life [2, 12] was 24.7 h and the AUC(0-t) ([2]; human, plasma, oral, 5 mg, Treatment C: 1 × 5 mg Formulation Concept 1 (unmilled API tablet), fasting, mean, read-out: AUClast) was 143 ng·h/mL. The AUC(0-inf) ([2]; human, plasma, oral, 5 mg, Treatment C: 1 × 5 mg Formulation Concept 1 (unmilled API tablet), fasting, mean, read-out: AUC∞) was 155 ng·h/mL, the Cmax ([2]; human, plasma, oral, 5 mg, Treatment C: 1 × 5 mg Formulation Concept 1 (unmilled API tablet), fasting, mean, read-out: Cmax) was 17 ng/mL and the Tmax ([2]; human, plasma, oral, 5 mg, Treatment C: 1 × 5 mg Formulation Concept 1 (unmilled API tablet), fasting) was 1.5 h. The AUC(0-t) ([2]; human, plasma, oral, 10 mg, Dose proportionality, completers, Treatment B (Reference): 1 × 10 mg Formulation Concept 1, fasting, read-out: Geometric Mean AUClast) was 271 ng·h/mL, the AUC(0-inf) ([2]; human, plasma, oral, 10 mg, Dose proportionality, completers, Treatment B (Reference): 1 × 10 mg Formulation Concept 1, fasting, read-out: Geometric Mean AUC∞) was 287 ng·h/mL and the AUC(0-t) ([2]; human, plasma, oral, 10 mg, Food effect, completers, Treatment B (Reference): 1 × 10 mg Formulation Concept 1, fasting, read-out: Geometric Mean AUClast) was 270 ng·h/mL. It also gave an AUC(0-inf) ([2]; human, plasma, oral, 10 mg, Food effect, completers, Treatment B (Reference): 1 × 10 mg Formulation Concept 1, fasting, read-out: Geometric Mean AUC∞) of 287 ng·h/mL, an AUC(0-t) ([2]; human, plasma, oral, 10 mg, Food effect, completers, Treatment D (Test): 1 × 10 mg Formulation Concept 1, after high-fat breakfast, read-out: Geometric Mean AUClast) of 388 ng·h/mL and an AUC(0-inf) ([2]; human, plasma, oral, 10 mg, Food effect, completers, Treatment D (Test): 1 × 10 mg Formulation Concept 1, after high-fat breakfast, read-out: Geometric Mean AUC∞) of 413 ng·h/mL. The Cmax ([2]; human, plasma, oral, 10 mg, Food effect, completers, Treatment D (Test): 1 × 10 mg Formulation Concept 1, after high-fat breakfast, read-out: Geometric Mean Cmax) was 36.6 ng/mL, the AUC(0-t) ([2]; human, plasma, oral, 10 mg, Relative BA, completers, Treatment B (Test): 1 × 10 mg Formulation Concept 1, fasting, read-out: Geometric Mean AUClast) was 271 ng·h/mL and the AUC(0-inf) ([2]; human, plasma, oral, 10 mg, Relative BA, completers, Treatment B (Test): 1 × 10 mg Formulation Concept 1, fasting, read-out: Geometric Mean AUC∞) was 287 ng·h/mL. The Vd/F [2, 13] was 1340 L, the half-life [2, 13] was 26.6 h and the AUC(0-t) ([2]; human, plasma, oral, 10 mg, Treatment B: 1 × 10 mg Formulation Concept 1 (unmilled API tablet), fasting, mean, read-out: AUClast) was 283 ng·h/mL. The AUC(0-inf) ([2]; human, plasma, oral, 10 mg, Treatment B: 1 × 10 mg Formulation Concept 1 (unmilled API tablet), fasting, mean, read-out: AUC∞) was 301 ng·h/mL, the Tmax ([2]; human, plasma, oral, 10 mg, Treatment B: 1 × 10 mg Formulation Concept 1 (unmilled API tablet), fasting) was 1.5 h and the Vd/F [2, 14] was 835 L. It also gave a half-life [2, 14] of 24.5 h, an AUC(0-t) ([2]; human, plasma, oral, 10 mg, Treatment D: 1 × 10 mg Formulation Concept 1 (unmilled API tablet), after high-fat breakfast, mean, read-out: AUClast) of 398 ng·h/mL and an AUC(0-inf) ([2]; human, plasma, oral, 10 mg, Treatment D: 1 × 10 mg Formulation Concept 1 (unmilled API tablet), after high-fat breakfast, mean, read-out: AUC∞) of 425 ng·h/mL. The Cmax ([2]; human, plasma, oral, 10 mg, Treatment D: 1 × 10 mg Formulation Concept 1 (unmilled API tablet), after high-fat breakfast, mean, read-out: Cmax) was 37.7 ng/mL, the Tmax ([2]; human, plasma, oral, 10 mg, Treatment D: 1 × 10 mg Formulation Concept 1 (unmilled API tablet), after high-fat breakfast) was 2.75 h and the AUC(0-t) ([2]; human, plasma, po, 10 mg, Relative BA, completers, Treatment A (Reference): 2 × 5 mg oral capsule, fasting, read-out: Geometric Mean AUClast) was 291 ng·h/mL. For the same compound, the AUC(0-inf) ([2]; human, plasma, po, 10 mg, Relative BA, completers, Treatment A (Reference): 2 × 5 mg oral capsule, fasting, read-out: Geometric Mean AUC∞) was 305 ng·h/mL, the Cmax ([2]; human, plasma, po, 10 mg, Relative BA, completers, Treatment A (Reference): 2 × 5 mg oral capsule, fasting, read-out: Geometric Mean Cmax) was 30.2 ng/mL and the Vd/F [2, 15] was 1250 L. For the same compound, the half-life [2, 15] was 26.3 h, the AUC(0-t) ([2]; human, plasma, po, 10 mg, Treatment A: 2 × 5 mg oral capsule, fasting, mean, read-out: AUClast) was 304 ng·h/mL and the AUC(0-inf) ([2]; human, plasma, po, 10 mg, Treatment A: 2 × 5 mg oral capsule, fasting, mean, read-out: AUC∞) was 315 ng·h/mL. The Cmax ([2]; human, plasma, po, 10 mg, Treatment A: 2 × 5 mg oral capsule, fasting, mean, read-out: Cmax) was 31.2 ng/mL, the Tmax ([2]; human, plasma, po, 10 mg, Treatment A: 2 × 5 mg oral capsule, fasting) was 1.5 h and the “Change from Treatment Baseline in SIGH-A score, Arithmetic Mean (SD)” value (subjects with MDD [3]) was −5.85 ± 5.369 scores on a scale.
